The nature of assay [1]: Inhibition of carbapenems-resistant Pseudomonas aeruginosa PAO1/pMS363 IMP-1 using nitrocefin as substrate after 20 mins by spectrophotometric analysis.
For assay [2], the system named is Pseudomonas aeruginosa. The assay can be described thus: Inhibition of IMP-1 in mexAB-deficient Pseudomonas aeruginosa KG5002/pMS363 assessed as MIC of BIPM at 50 ug/ml by microbroth dilution method. A general note: In broth dilution the organism is exposed to a series of concentrations in liquid medium.
Assay [3] deals with Pseudomonas aeruginosa. As to the kind of experiment: Inhibition of IMP-1 in Pseudomonas aeruginosa PAO1/pMS363 assessed as MIC of BIPM at 50 ug/ml by microbroth dilution method.

The values that follow come from ChEMBL document CHEMBL3352464, “X-ray crystallographic analysis of IMP-1 metallo-β-lactamase complexed with a 3-aminophthalic acid derivative, structure-based drug design, and synthesis of 3,6-disubstituted phthalic acid derivative inhibitors” (Bioorg Med Chem Lett, 2014).

The term IC50 denotes the point on the concentration scale where inhibition reaches its midpoint.

Turning to `O=C(O)c1c(F)ccc(N2CCC(O)CC2)c1C(=O)O`, the half-maximal inhibitory concentration (IC50) in assay [1] was found to be 17500 nM. For the same compound, the figures for the MIC in the assay with Pseudomonas aeruginosa [2] and in the assay on Pseudomonas aeruginosa [3] were 1 µg/mL and 2 µg/mL, respectively.
For `O=C(O)c1c(N2CCC(O)CC2)ccc(N2CCC(O)CC2)c1C(=O)O`, the IC50 in assay [1] was 270 nM. For the same compound, the MIC in the assay on Pseudomonas aeruginosa [2] was below 0.25 µg/mL; in the assay with Pseudomonas aeruginosa [3], 0.5 µg/mL.
For `Cc1ccc(N2CCC(O)CC2)c(C(=O)O)c1C(=O)O`, in that order: 700 nM, below 0.25 µg/mL and 1 µg/mL.
For `O=C(O)c1cccc(N2CCC(O)CC2)c1C(=O)O`, in assay [1], the IC50 stood at 2700 nM. Also, the values for the MIC in the assay with Pseudomonas aeruginosa [2] and in the assay with Pseudomonas aeruginosa [3] were below 0.25 µg/mL and 1 µg/mL, respectively.
Taken in the same sequence, the figures for `CN(C)c1ccc(N2CCC(O)CC2)c(C(=O)O)c1C(=O)O` were 4100 nM, below 0.25 µg/mL and 1 µg/mL.
